Source: patent publication US7018992B2, “Hormone composition” (Novo Nordisk A/S, priority 2000, dated 2006)
Marks after values point to notes of the source that are not given here.

What was measured:
[1] = test system: superficial vaginal cells; test: Vaginal cytology, percentage of superficial cells, Example 3; format: in vivo, postmenopausal women
Protocol: (§1) Efficacy was measured with composite scores of vaginal symptoms (dryness, soreness, and irritation) and vaginal health (secretions, epithelial integrity, surface thickness, and pH). Vaginal and urethral cytology analyses were also performed, and the vaginal maturation value was determined. Safety assessments included endometrial biopsies.
(§2) All vaginal tablets were identical in appearance. Patients inserted 1 tablet daily for 14 days. Thereafter, patients inserted 1 tablet twice per week (Sunday and Thursday) for the remainder of the trial. Patients were to insert the tablets at the same time each day (preferably at bedtime). Patients were evaluated for efficacy and safety at Week—4 (screening), Week 0 (baseline), and Weeks 2, 7, and 12.
(§3) Vaginal and urethral cell samples were harvested and analyzed by independent cytologists to determine the percentages of parabasal, intermediate, and superficial cells. Maturation values were calculated according to the following equation: maturation value=1.0×[superficial cells, %]+0.5×[intermediate cells, %] Endometrial biopsies were performed at the end of the study in patients with intact uteri. The number of patients with abnormal biopsies was compared between treatment groups.

vaginal cells = test: Vaginal maturation value, Example 3; format: in vivo, postmenopausal women; conditions: 25 or 10 μg E2 (active treatment groups), Week 12
Protocol: as §1, §2, §3

[2] = test system: follicle stimulating hormone (FSH); test: Serum FSH concentration (immunoradiometric assay), Example 2; format: in vivo, postmenopausal women; conditions: 25 μg E2, Week 12
Protocol: (§4) Maturation values of vaginal mucosal cells were assessed as an indicator of changes in the condition of the vaginal mucosa in response to treatment.
(§5) Upon presentation to the clinic for each visit, a vaginal cytology specimen was obtained. Patients then inserted the tablets. […] The blood samples obtained at 30 minutes before insertion, and at 6, 12, and 24 hours after insertion were also used to determine the FSH concentration via immunoradiometric assay.
Data for area under the curve and maximal concentration were converted to a logarithmic scale, and changes from first dose (at the baseline visit) in the logarithmic values were estimated using 95% confidence intervals derived from paired t-tests. […] Differences within treatment groups in FSH concentration were determined using the Wilcoxon signed rank test based on changes from baseline in mean concentrations at weeks 2 and 12. Mean concentrations were defined as the average concentrations obtained at 30 minutes before tablet insertion and 6, 12, and 24 hours after insertion.

[3] = test system: postmenopausal women with atrophic vaginitis; test: Patients with vaginal pH values below 5.5, Example 3; format: in vivo
Protocol: as §1, §2
Investigators used a severity scale of none, mild, moderate, or severe to assess vaginal health characteristics (secretions, epithelial integrity, surface thickness, color, and pH). Severity categories were assigned ascending scores from 0 (none) to 3 (severe) for analysis. To avoid multiple endpoint issues, composite scores were defined. A composite score for vaginal health was defined as the average of the individual vaginal health characteristic scores. The composite score and the change from baseline for the composite score were examined at each time point. Differences within and between treatment groups were analyzed using an analysis of variance (ANOVA).

vaginal mucosal cells = test: Maturation value of vaginal mucosal cells, Example 2; format: in vivo, postmenopausal women
Protocol: as §4
After the screening visit, patients received no study treatment during the 4-week run-in period prior to the baseline visit. […] The vaginal tablets were identical in appearance. Patients inserted 1 tablet intravaginally, once daily for the initial 2 weeks of the study and then twice per week (Sunday and Thursday) for the remaining 10 weeks. Patients were instructed to use their medication at a consistent time each day, preferably in the morning.
as §5
The maturation value of vaginal mucosal cells was calculated from the percentages of parabasal, intermediate, and superficial cells according to the following equation: maturation value=0×[parabasal cells, %]+0.5×[intermediate cells, %]+1.0×[superficial cells, %]

endometrium = test: Endometrial biopsy at end of study, Example 3; format: in vivo, postmenopausal women
Protocol: as §1, §2, §3

[4] = test system: superficial urethral cells; test: Urethral cytology, percentage of superficial cells, Example 3; format: in vivo, postmenopausal women
Protocol: as §1, §2, §3

[5] = test system: superficial vaginal and urethral cells; test: Subjects by percentages of both superficial vaginal and urethral cells, Example 3; format: in vivo, postmenopausal women
Protocol: as §2, §3

**Q.** For `C[C@]12CC[C@@H]3c4ccc(O)cc4CC[C@H]3[C@@H]1CC[C@@H]2O` [E2, 17β-estradiol], which “Mean percentage of superficial vaginal cells” value ([1]; 10 μg E2, Week 0) is on record?
**A.** The value was 3.1%.

**Q.** What about the “Mean change from baseline in percentage of superficial vaginal cells” value ([1]; 10 μg E2, Week 2) of the same compound?
**A.** Its value is 25.0^a %.

**Q.** What about the “Mean percentage of superficial vaginal cells” value ([1]; 25 μg E2, Week 0) of the same compound?
**A.** The value was 4.0%.

**Q.** What about the Maturation value (vaginal cells) of the same compound?
**A.** The Maturation value was “approximately 60%”.

**Q.** And the “Number of patients with mean FSH concentrations below 35” value [2]?
**A.** The value was 3 patients.

**Q.** And the “Number of patients with vaginal pH values below 5.5” value ([3]; 10 μg E2, Week 0)?
**A.** Its value is 27/89.

**Q.** And the “Number of patients with vaginal pH values below 5.5” value ([3]; 10 μg E2, Week 2)?
**A.** Its value is 67/84.

**Q.** What about the “Number of patients with vaginal pH values below 5.5” value ([3]; 10 μg E2, Week 7) of the same compound?
**A.** The value was 57/80.

**Q.** What about the “Number of patients with vaginal pH values below 5.5” value ([3]; 10 μg E2, Week 12) of the same compound?
**A.** The value was 54/71.

**Q.** What about the “Number of patients with vaginal pH values below 5.5” value ([3]; 25 μg E2, Week 0) of the same compound?
**A.** Its value is 31/90.

**Q.** What about the “Number of patients with vaginal pH values below 5.5” value ([3]; 25 μg E2, Week 2) of the same compound?
**A.** The value was 64/87.

**Q.** And the “Number of patients with vaginal pH values below 5.5” value ([3]; 25 μg E2, Week 7)?
**A.** The value was 71/83.

**Q.** And the “Percentage of patients with vaginal pH values below 5.5” value ([3]; 25 μg E2, Week 7)?
**A.** The value was 85.5%.

**Q.** What about the “Number of patients with vaginal pH values below 5.5” value ([3]; 25 μg E2, Week 12) of the same compound?
**A.** The value was 63/79.

**Q.** What about the “Percentage of patients with vaginal pH values below 5.5” value ([3]; 25 or 10 μg E2 (active treatment groups), Week 12) of the same compound?
**A.** Its value is 75%.

**Q.** What about the Mean maturation value (vaginal mucosal cells; 10 μg E2, Week 0 (baseline), mean ± SD) of the same compound?
**A.** Its Mean maturation value is 51.0.

**Q.** What about the “Number of patients with increases in maturation values from baseline” value (vaginal mucosal cells; 10 μg E2, Week 12) of the same compound?
**A.** The value was 14 patients.

**Q.** And the “Number of patients with increases in maturation values from baseline” value (vaginal mucosal cells; 25 μg E2, Week 12)?
**A.** Its value is 13 patients.

**Q.** And the “Mean change from baseline in maturation value” (vaginal mucosal cells; 25 μg E2, Week 12, mean ± SD, P ≦ .01)?
**A.** Its value is 7.0 ± 8.7^b.

**Q.** What about the “Endometrial biopsy result Abnormal (hyperplasia or carcinoma), number of patients” value (endometrium; 10 μg E2, Week 12, N = 32) of the same compound?
**A.** The value was 0.

**Q.** What about the “Endometrial biopsy result Abnormal (hyperplasia or carcinoma), percentage of patients” value (endometrium; 10 μg E2, Week 12, N = 32) of the same compound?
**A.** Its value is 0.0%.

**Q.** And the “Endometrial biopsy result Abnormal (hyperplasia or carcinoma), percentage of patients” value (endometrium; 25 μg E2, Week 12, N = 32)?
**A.** The value was 3.1%.

**Q.** What about the “Mean percentage of superficial urethral cells” value ([4]; 10 μg E2, Week 0) of the same compound?
**A.** Its value is 2.5%.

**Q.** And the “Mean change from baseline in percentage of superficial urethral cells” value ([4]; 10 μg E2, Week 12)?
**A.** Its value is 6.8%.

**Q.** What about the “Mean percentage of superficial urethral cells” value ([4]; 10 μg E2, Week 12) of the same compound?
**A.** Its value is 9.5%.

**Q.** And the “Mean percentage of superficial urethral cells” value ([4]; 25 μg E2, Week 0)?
**A.** The value was 3.2%.

**Q.** What about the “Mean change from baseline in percentage of superficial urethral cells” value ([4]; 25 μg E2, Week 12) of the same compound?
**A.** Its value is 7.5%.

**Q.** What about the “Mean percentage of superficial urethral cells” value ([4]; 25 μg E2, Week 12) of the same compound?
**A.** Its value is 11.2%.

**Q.** What about the “Number of subjects with both superficial vaginal and urethral cells less than or equal to 5%” value ([5]; 10 μg E2, Week 0) of the same compound?
**A.** The value was 53 subjects.

**Q.** And the “Number of subjects with increases in percentages of both superficial vaginal and urethral cells” value ([5]; 10 μg E2, Week 12)?
**A.** Its value is 44 subjects.

**Q.** And the “Number of subjects with both superficial vaginal and urethral cells less than or equal to 5%” value ([5]; 25 μg E2, Week 0)?
**A.** Its value is 57 subjects.

**Q.** And the “Number of subjects with increases in percentages of both superficial vaginal and urethral cells” value ([5]; 25 μg E2, Week 12)?
**A.** The value was 52 subjects.
